Laboratory results as given in US20190125753A1, “COMPOUNDS AND METHODS FOR INCREASING HEMATOPOIESIS” (University of Southern California, priority 2016, published 2019).

Tests used:
[1] = target: T1, interaction between β-catenin and p300 (Mus musculus, UniProt B2RWS6); test: Co-immunoprecipitation (pull-down) in C2Cl2 myoblast cells; format: cell-based; conditions: C2Cl2 cells treated 24 hours
T1 construct: endogenous in cells; host or cells: mouse myoblast C2C12 cells
Experimental: YH249 and YH250 were selected from the compounds described herein for further testing. Co-immunoprecipitation (CO-IP) was performed with mouse myoblast C2Cl2 cells. Cells were treated with DMSO (control), or YH249, or YH250 for 24 hours. Cell lyses were pulled down with anti-p300 or anti-CBP antibodies, run on gel and probed with anti-β-catenin antibody. […] A biotinylated version of YH249 (Bio-249) was prepared via the propargyl amide variant. Using a biotin with a linker and a terminal azide residue, we were able to couple the biotin to the YH249 core via a 3+2 cyclization reaction to provide Bio-249. Bio-249 was incubated with lysates from C2Cl2 myoblasts, either in the presence or absence of competitor YH249 for 4 h at 4° C. and then bound to streptavidin agarose beads. After extensive washing the bound proteins were eluted and run out on an […].

[2] = test system: mouse bone marrow cells; test: Colony-forming cell (CFC) assay after 4 h in vitro treatment; format: cell-based
Experimental: Brief (less than 24 hours) treatment of HSC with YH250 or DMSO was conducted before the CFC or CFU-S12 assay. Mouse bone marrow cells were treated with DMSO (solvent control) or YH250 for 4 hours in serum free HSC expansion medium before the cells were recovered for a colony forming assay. 7-8 Days after cell plating in methylcellulose medium (Stemcell Technologies, Methocult GF M3434, Cat#3434), colonies were scored, and the cells from each plate were recovered and counted.
In fact, they also show similar biological functions with respect to HSPC.

[3] = test system: cord blood cells; test: Cord blood cells incubated 24 hrs then BMT to transgenic NSG mice; format: in vivo, human; conditions: 10 μM 24 hrs in 4GF or 6GF medium; day 28th post BMT
Experimental: To examine p300/β-catenin antagonist YH250 effects on cord blood HSC in BMT, cord blood cells were incubated with 4GF or 6GF medium and 10 μM of YH250 for 24 hrs, then cells were recovered and transplanted to irradiated NOD.Cg-Prkdc^scidIL1rg^tmlwjlTg(CMV-[…], CSF2, KITLG)1Eva, MloySzJ; JAX stock#013062) mice, these are transgenic NSG mice expressing human interleukin-3, human GM-CSF and human stem cell factor. Blood were collected at day 28th post BMT to determine engraftment.

[4] = test system: bone marrow HSPC; test: HSPC proliferation in 7Gy irradiated mice (BrdU, cell cycle, FACS); format: in vivo, mouse
Experimental: YH250 was also tested for stimulation of HSPC (hematopoietic stem/progenitor population) proliferation in irradiated animals. In this study, mice received 7Gy whole body radiation, DMSO or YH250 (s.c., 2 mg/Kg) were administrated 24 hours post radiation, followed with BrdU injection. FIG. 17A depicts the experimental procedure. […] Then, YH250 was administrated to 7Gy irradiated animals and 4 days later, bone marrow cells were isolated for FACS analysis for HSC markers (FIG. 17E).

[5] = test system: bone marrow HSPC; test: Competitive repopulation assay with bone marrow of 7Gy irradiated mice; format: in vivo, mouse
Experimental: In the hematopoietic system, the LTR-HSC or pluripotent HSC sits atop the hematopoietic hierarchy. LTR-HSCs subsequently generate “Short Term Repopulating” hematopoietic stem cells (STR-HSC), and then progenitor cells. After radiation induced myeloid-ablation, there is a significant loss of progenitor cells. To investigate the target cell population in irradiated mice, YH250 or DMSO were administrated to 7Gy irradiated animals 24 hours post radiation. Then, 7 or 14 days post radiation (6 or 13 days after YH250 or DMSO administration), bone marrow cells were recovered from animals and competitive repopulation assay was performed to study YH250 function in stimulating HSPC proliferation. 1×10^6 testing bone marrow cells were mixed with 2×10^5 competitor cells (from non-irradiated mice) and injected into lethally irradiated mice (9Gy) (FIG. 18A). HSPC cell number will be reflected in the short-term (1-2 months after BMT) or long-term (≥4 month of BMT) engraftment. […] The same observation also applies to cells isolated 14th day post 7Gy radiation.
The expanded LTR-HSC at day 6 post YH250 stimulation then starts to develop and give more STR-HSC by day 14 post radiation. There is no further LTR-HSC expanding from day 6 to day 13 post YH250. Thus, one dose of YH250 administrated 24 hours post 7Gy radiation stimulated symmetric non-differentiation LTR-HSC expansion and followed with STR-HSC expansion.

[6] = test system: bone marrow cells; test: Bone marrow CFC recovery after 7Gy radiation; format: in vivo, mouse
Experimental: According to particular aspects of the present invention, if YH250 can stimulate 7Gy irradiated animal HSPC proliferation/expansion, the compound may accelerate the recovery of the hematopoiesis from radiation damage. We first tested if YH250 treatment accelerates bone marrow cell CFC activities, the more differentiated cells. After 7Gy radiation and either DMSO or YH250 administration 24 hours post radiation, bone marrow cells were recovered at different time points (day 6, 11, 13, 15 post treatment) and CFC assays were performed (FIG. 19A). […] Consistent with increased colony numbers, there are more cells from plates of YH250 treated cells.

[7] = test system: bone marrow cells; test: Radiation induced apoptosis, cleaved PARP FACS; format: in vivo; conditions: administered 18 hours before 5Gy radiation; 6 hours after radiation
Experimental: Since p300/-catenin antagonists such as YH250 up-regulate survivin gene expression, YH250 was tested for the ability to attenuate radiation induced cell apoptosis by detecting cleaved PARP (Poly ADP ribose polymerase-1) using anti-PARP antibody and FACS analysis (BD Bioscience, Cat#562253, anti-PARP clone F21-852). DMSO or YH250 were administrated 18 hours before 5Gy radiation. 6 hours after radiation, bone marrow cells were isolated and stained for cell surface markers (lineage markers, Sca-1, c-kit) and anti-PARP (FIG. 23A).

[8] = test system: bone marrow HSC; test: Competitive repopulation assay after multi-dose 5-FU; format: in vivo, mouse; conditions: multi-dose YH250 with 5-FU
From the text: At the last round of 5-FU treatment from FIG. 25A, bone marrow cells from survived animals were isolated (CD45.2) and mixed with competitor cells (CD45.1/CD45.2 hybrid) and injected to CD45.1 mice for competitive repopulation assay. This is to assess whether YH250, by multiple uses in this experiment setting, will result in changes of HSC activity and lead to HSC exhaustion (FIG. 26A).

[9] = 4 hours incubation then CFC assay
[10] = bone marrow cells recovered day 7 post radiation
[11] = bone marrow cells recovered day 14 post radiation

T1 sequence (B2RWS6 2-2412 limits assumed): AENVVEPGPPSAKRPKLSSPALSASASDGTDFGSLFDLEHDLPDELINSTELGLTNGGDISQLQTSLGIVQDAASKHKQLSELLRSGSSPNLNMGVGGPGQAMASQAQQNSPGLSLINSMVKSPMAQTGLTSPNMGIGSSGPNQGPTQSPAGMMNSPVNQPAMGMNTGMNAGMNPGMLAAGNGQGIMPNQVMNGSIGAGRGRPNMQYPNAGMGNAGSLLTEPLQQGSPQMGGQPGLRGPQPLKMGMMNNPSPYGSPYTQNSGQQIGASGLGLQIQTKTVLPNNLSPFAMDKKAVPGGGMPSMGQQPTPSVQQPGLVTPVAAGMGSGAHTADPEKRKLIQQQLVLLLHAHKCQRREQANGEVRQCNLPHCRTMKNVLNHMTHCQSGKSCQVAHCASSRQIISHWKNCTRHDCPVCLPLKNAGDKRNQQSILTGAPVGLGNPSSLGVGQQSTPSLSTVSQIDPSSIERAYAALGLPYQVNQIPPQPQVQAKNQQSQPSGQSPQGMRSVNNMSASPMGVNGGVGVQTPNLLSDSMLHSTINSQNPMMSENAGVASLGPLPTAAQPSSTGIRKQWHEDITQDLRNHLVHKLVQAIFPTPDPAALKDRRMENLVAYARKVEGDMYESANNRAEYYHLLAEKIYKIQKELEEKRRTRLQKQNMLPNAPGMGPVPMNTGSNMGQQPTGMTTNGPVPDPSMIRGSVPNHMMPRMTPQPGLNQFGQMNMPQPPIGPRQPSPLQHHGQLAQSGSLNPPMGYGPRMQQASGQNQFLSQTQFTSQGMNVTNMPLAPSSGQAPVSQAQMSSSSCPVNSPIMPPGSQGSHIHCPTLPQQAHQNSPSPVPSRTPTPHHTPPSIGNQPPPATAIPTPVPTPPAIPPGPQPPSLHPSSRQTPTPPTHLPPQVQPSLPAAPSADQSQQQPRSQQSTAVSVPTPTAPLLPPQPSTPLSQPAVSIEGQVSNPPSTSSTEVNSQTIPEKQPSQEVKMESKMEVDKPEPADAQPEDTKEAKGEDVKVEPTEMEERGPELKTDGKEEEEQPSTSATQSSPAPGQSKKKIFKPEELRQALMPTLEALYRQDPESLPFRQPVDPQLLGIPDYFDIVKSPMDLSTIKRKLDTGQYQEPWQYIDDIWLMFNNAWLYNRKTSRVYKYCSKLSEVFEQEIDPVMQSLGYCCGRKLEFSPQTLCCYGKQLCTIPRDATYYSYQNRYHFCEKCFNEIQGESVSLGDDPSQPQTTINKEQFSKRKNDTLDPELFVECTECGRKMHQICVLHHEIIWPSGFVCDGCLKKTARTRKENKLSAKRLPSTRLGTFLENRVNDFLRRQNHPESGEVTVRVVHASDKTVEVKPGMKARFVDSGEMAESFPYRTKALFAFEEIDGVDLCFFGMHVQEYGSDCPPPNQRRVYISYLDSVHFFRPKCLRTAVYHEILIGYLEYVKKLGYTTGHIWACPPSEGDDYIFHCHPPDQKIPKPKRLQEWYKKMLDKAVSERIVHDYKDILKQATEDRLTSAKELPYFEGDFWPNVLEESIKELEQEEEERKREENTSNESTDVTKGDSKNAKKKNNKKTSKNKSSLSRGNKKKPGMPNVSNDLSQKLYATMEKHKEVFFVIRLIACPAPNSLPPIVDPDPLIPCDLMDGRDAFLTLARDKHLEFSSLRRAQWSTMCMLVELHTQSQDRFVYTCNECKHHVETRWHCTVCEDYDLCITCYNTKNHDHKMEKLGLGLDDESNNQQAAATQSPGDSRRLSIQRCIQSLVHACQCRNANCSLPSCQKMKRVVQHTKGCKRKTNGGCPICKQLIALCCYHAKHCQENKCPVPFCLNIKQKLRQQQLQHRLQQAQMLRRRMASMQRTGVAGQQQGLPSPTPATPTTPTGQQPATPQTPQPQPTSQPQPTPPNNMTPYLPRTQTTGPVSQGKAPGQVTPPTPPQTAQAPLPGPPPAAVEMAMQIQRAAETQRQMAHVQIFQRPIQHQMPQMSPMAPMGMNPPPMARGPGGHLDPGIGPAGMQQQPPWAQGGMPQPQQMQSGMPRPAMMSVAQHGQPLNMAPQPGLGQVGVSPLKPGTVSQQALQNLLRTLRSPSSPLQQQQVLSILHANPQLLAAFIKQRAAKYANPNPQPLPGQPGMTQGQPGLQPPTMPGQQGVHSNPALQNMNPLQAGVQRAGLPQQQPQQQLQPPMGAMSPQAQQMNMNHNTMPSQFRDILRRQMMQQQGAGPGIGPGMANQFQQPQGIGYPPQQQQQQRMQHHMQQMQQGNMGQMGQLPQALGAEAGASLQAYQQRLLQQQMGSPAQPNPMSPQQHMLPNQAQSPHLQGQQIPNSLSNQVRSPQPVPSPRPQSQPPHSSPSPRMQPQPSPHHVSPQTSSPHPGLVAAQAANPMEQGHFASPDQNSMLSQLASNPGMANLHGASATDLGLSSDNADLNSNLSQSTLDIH

COc1cccc(CNC(=O)N2C3CN(Cc4cc(Cl)cc(Cl)c4N(C)C)C(=O)[C@H](Cc4ccc(O)cc4)N3C(=O)CN2C)c1OC (stereo partly drawn) [YH250]
β-catenin in the p300 pull down lane [1]: significantly decreased levels of β-catenin | CELL#/plate [2, 9]: 9.5 × 10^5 | CFC#/plate [2, 9]: 29 | CFC colony number vs DMSO ([2]; 4 hours treatment, serum free medium, scored 7-8 days after plating): not significantly different | cell number in each plate vs DMSO ([2]; 4 hours treatment, cells recovered from plate): increased cell number in each plate | human CD34posit cells in blood vs DMSO treated cells [3]: more human CD34posit cells | bone marrow cells in S phase ([4]; 7Gy irradiation): more bone marrow cells in S phase | HSPC (L−CD48−CD150+ cells) ([4]; 7Gy, 4 days after administration): increased HSPC | BrdU positive cells in lineage negative (Lin) population ([4]; 7Gy, s.c., 2 mg/Kg 24 hours post radiation): more BrdUpost cells | long-term engraftment [5, 10]: 4.1±1.6 | short term engraftment [5, 10]: 5.8±2.4 | long-term engraftment [5, 11]: 3.4±0.57 | short term engraftment [5, 11]: 12.3±2.0 | engraftment vs DMSO treated animals, short term and long term ([5]; cells recovered 7th day post 7Gy radiation, one dose 24 hours post radiation): better engraftment | cells from CFC plates ([6]; 7Gy radiation): more cells | colonies in CFC assay vs DMSO treated mice ([6]; 14th day post 7Gy radiation): significantly more colonies | apoptosis (cleaved PARP) in LSK, lineage-negt and lineage-posit population [7]: significantly less apoptosis | lineage bias in short-term and long-term repopulation [8]: no lineage bias
